# Reference: ChEMBL document CHEMBL3886685, “Nitrogen-containing bicyclic aromatic heterocyclic compound” (2016)
# Molecular target: Cathepsin S (Homo sapiens, UniProt P25774)
# Assay: Inhibition Assay: 5 μL of a human cathepsin S enzyme (R&D1183-CY-010) was added to a 96-well plate so as to be 20 ng/well. Next, 10-fold dilution of the test compound (a 10 mM DMSO solution) was serially performed with a buffer solution for assay (a solution of 50 mM sodium methoxide, 250 mM sodium chloride and 5 mM dithiothreitol (DTT), adjusted to pH=4.5 with 1 N hydrochloric acid) six times such that the final concentration becomes 0.1 nM to 10 μM then, 20 μL of each of the solutions was added to the wells (the final DMSO concentration was 0.1%), and 25 μL of synthetic substrate VVR-AMC (3211-V manufactured by PEPTIDE […], INC.) was added thereto such that the final concentration becomes 40 μM, thereby starting a enzyme reaction. A fluorescence intensity (an excitation wavelength: 380 nm and a fluorescent wavelength: 460 nm) was measured at 37° C. for 10 minutes immediately after the start of the reaction using a fluorescence spectrophotometer (SPECTRA MAX GEMINI, manu
# Chain of Cathepsin S (P25774 whole entry): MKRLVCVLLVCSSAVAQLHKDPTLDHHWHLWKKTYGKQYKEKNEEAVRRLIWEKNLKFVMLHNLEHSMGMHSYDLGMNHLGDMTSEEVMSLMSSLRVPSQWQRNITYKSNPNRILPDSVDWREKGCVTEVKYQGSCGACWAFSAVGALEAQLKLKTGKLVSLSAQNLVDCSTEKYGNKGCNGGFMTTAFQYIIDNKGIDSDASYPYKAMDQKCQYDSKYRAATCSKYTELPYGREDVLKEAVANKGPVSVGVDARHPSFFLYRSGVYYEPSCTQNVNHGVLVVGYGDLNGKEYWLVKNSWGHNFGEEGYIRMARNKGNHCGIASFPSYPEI
row,IC50 [nM],Compound
1,2.9,CCN1CCC(CCOc2ccc(-c3nc(C#N)nc4c3ccn4C3COC3)cc2C(F)(F)F)CC1
2,2.9,CCOc1ccc(-c2nc(C#N)nc3c2ccn3CC(=O)NC2CCN(C)CC2)cc1C(F)(F)F
3,1.9,Cn1cnc2c(-c3cc(F)c(OCCC4CCNCC4)c(C(F)(F)F)c3)nc(C#N)nc21
4,4.5,Cn1ccc2c(-c3ccc(OCC4CNC4)c(C(F)(F)F)c3)nc(C#N)nc21
5,3.1,N#Cc1nc(-c2ccc(OCCC3CCN(CCO)CC3)c(C(F)(F)F)c2)c2ccn(CC3CCOC3)c2n1 (centres undefined)
6,2.1,CN1CCC[C@H]1C(=O)N1CC(COc2ccc(-c3nc(C#N)nc4c3ccn4C)cc2C(F)(F)F)C1
7,2.7,CCN1CCC(CCOc2ccc(-c3nc(C#N)nc4c3ccn4CC3CCOC3)cc2C#N)CC1 (centres undefined)
8,4.7,CN1CCC[C@H]1C(=O)N1CCC(CCOc2ccc(-c3nc(C#N)nc4c3ccn4CC3CCOC3)cc2C(F)(F)F)CC1 (some centres undefined)
9,3.1,N#Cc1nc(-c2cnc(OCCC3CCNCC3)c(C(F)(F)F)c2)c2ccn(CC(=O)N3CCOCC3)c2n1
10,1.9,CCN1CCC(CCOc2ncc(-c3nc(C#N)nc4c3ccn4C)cc2C(F)(F)F)CC1
11,3.1,CCN1CC(COc2ccc(-c3nc(C#N)nc4c3ccn4C)cc2C(F)(F)F)C1
12,3.8,CCN1CCC(C)(COc2ccc(-c3nc(C#N)nc4c3ccn4C)cc2C(F)(F)F)CC1
13,2.5,N#Cc1nc(-c2ccc(OCCC3CCOCC3)c(C(F)(F)F)c2)c2ccn(CC(=O)N3CCC(CN4CCCC4)CC3)c2n1
14,3.5,CN1CCC[C@H]1C(=O)N1CCC(CCOc2ccc(-c3nc(C#N)nc4c3ncn4C)cc2C(F)(F)F)CC1
15,2.3,CN1CCC(C(=O)N2CCC(CCOc3ccc(-c4nc(C#N)nc5c4ncn5C)cc3C(F)(F)F)CC2)C1 (centres undefined)
16,2.3,CN1C[C@@H](O)C[C@H]1C(=O)N1CCC(CCOc2ccc(-c3nc(C#N)nc4c3ncn4C)cc2C(F)(F)F)CC1
17,3,CCN1CCCC(COc2ccc(-c3nc(C#N)nc4c3ccn4C)cc2C(F)(F)F)C1 (centres undefined)
18,2.1,Cn1ccc2c(-c3cnc(OCC4CCN(C(=O)C5CCN(CC(C)(C)O)CC5)CC4)c(C(F)(F)F)c3)nc(C#N)nc21
19,3.1,CN1CCC[C@H]1C(=O)N1CCC(CCOc2ncc(-c3nc(C#N)nc4c3ncn4C)cc2C(F)(F)F)CC1
20,2.4,CCN1CCC(CCOc2ncc(-c3nc(C#N)nc4c3ccn4CC(=O)N3CCOCC3)cc2C(F)(F)F)CC1
21,1.6,Cn1cnc2c(-c3ccc(OCCC4CCN(CC(=O)N5CCCC5)CC4)c(C(F)(F)F)c3)nc(C#N)nc21
22,2,CCN1CCC(OCCOc2ccc(-c3nc(C#N)nc4c3ccn4C)cc2C(F)(F)F)CC1
23,2.3,CN1CCC[C@H]1C(=O)N1CCC(CCOc2ccc(-c3nc(C#N)nc4c3ccn4C)cc2C(F)(F)F)C1 (some centres undefined)
24,2,CCN1CCC(CCOc2ccc(-c3nc(C#N)nc4c3ccn4CC(N)=O)cc2C(F)(F)F)CC1
25,3.4,N#Cc1nc(-c2cnc(OCCC3CCNCC3)c(C(F)(F)F)c2)c2ccn(CC3CCOC3)c2n1 (centres undefined)
26,1,CCN1CCC(CCOc2ncc(-c3nc(C#N)nc4c3ncn4C)cc2C(F)(F)F)CC1

row,IC50 [nM],Compound
1,3.3,CN1CCC[C@H]1C(=O)N1CCC(CCOc2ccc(-c3nc(C#N)nc4c3ccn4C3COC3)cc2C(F)(F)F)CC1
2,2.4,Cn1cnc2c(-c3ccc(OCCC4CCN(CC(=O)N5CCC(F)(F)C5)CC4)c(C(F)(F)F)c3)nc(C#N)nc21
3,7.8,CN1CCC[C@H]1C(=O)N1CCC(CCOc2ccc(-c3nc(C#N)nc4c3ccn4CC3CCOC3)cc2C#N)CC1 (some centres undefined)
4,4.8,CN1CCC[C@H]1C(=O)N1CCC(CCOc2ncc(-c3nc(C#N)nc4c3ccn4C)cc2C(F)(F)F)CC1
5,2.1,CC(C)N1CCC[C@H]1C(=O)N1CCC(CCOc2ncc(-c3nc(C#N)nc4c3ncn4C)cc2C(F)(F)F)CC1
6,3.6,CN1CCC[C@H]1C(=O)N1CCCC(COc2ccc(-c3nc(C#N)nc4c3ccn4C)cc2C(F)(F)F)C1 (some centres undefined)
7,2.2,CN(C)C(=O)CN1CCC(CCOc2ncc(-c3nc(C#N)nc4c3ccn4C)cc2C(F)(F)F)CC1
8,2.8,CCN1CCC(COc2ccc(-c3nc(C#N)nc4c3ccn4CC3CCOC3)cc2C(F)(F)F)CC1 (centres undefined)
9,3.9,CCN1CCC(CCOc2ccc(-c3nc(C#N)nc4c3ccn4CC3CCOC3)cc2C(F)(F)F)CC1 (centres undefined)
10,3.6,Cn1ccc2c(-c3ccc(OCC4(C)CCNCC4)c(C(F)(F)F)c3)nc(C#N)nc21
11,3.3,N#Cc1nc(-c2ccc(OCCC3CCNCC3)c(C#N)c2)c2ccn(CC3CCOC3)c2n1 (centres undefined)
12,6.1,Cn1cnc2c(-c3ccc(OCCC4CCN(C(=O)CO)CC4)c(C(F)(F)F)c3)nc(C#N)nc21
13,1.3,Cn1ccc2c(-c3ccc(OCCC4CCNC4)c(C(F)(F)F)c3)nc(C#N)nc21 (centres undefined)
14,1.7,Cn1cnc2c(-c3ccc(OCCC4CCNCC4)c(C(F)(F)F)c3)nc(C#N)nc21
15,2.1,Cn1ccc2c(-c3ccc(OCCOC4CCNCC4)c(C(F)(F)F)c3)nc(C#N)nc21
16,2.2,CCN1CCC(CCOc2ccc(-c3nc(C#N)nc4c3ncn4CC3CCOC3)cc2C(F)(F)F)CC1 (centres undefined)
17,2.3,Cc1nnc(CN2CCC(CCOc3ccc(-c4nc(C#N)nc5c4ncn5C)cc3C(F)(F)F)CC2)o1
18,1.4,CN1CCC[C@H]1C(=O)N1CCC(CCOc2ncc(-c3nc(C#N)nc4c3ncn4CC3CCOC3)cc2C(F)(F)F)CC1 (some centres undefined)
19,4.3,CC(C)N1CCC(CCOc2ccc(-c3nc(C#N)nc4c3ccn4CC3CCOC3)cc2C#N)CC1 (centres undefined)
20,1.9,N#Cc1nc(-c2ccc(OCC3CCNCC3)c(C(F)(F)F)c2)c2ccn(CC3CCOC3)c2n1 (centres undefined)
21,2.9,CN(C)C(=O)CN1CCC(CCOc2ccc(-c3nc(C#N)nc4c3ccn4CC3CCOC3)cc2C(F)(F)F)CC1 (centres undefined)
22,0.76,Cn1cnc2c(-c3ccc(OCCC4CCN(CCO)CC4)c(C(F)(F)F)c3)nc(C#N)nc21
23,1.9,CN(C)C(=O)CN1CCC(CCOc2ccc(-c3nc(C#N)nc4c3ccn4CCO)cc2C(F)(F)F)CC1
24,3.1,Cn1ccc2c(-c3ccc(OCC4CCCNC4)c(C(F)(F)F)c3)nc(C#N)nc21 (centres undefined)
25,2.7,CN1CCC(C(=O)N2CCC(CCOc3ccc(-c4nc(C#N)nc5c4ncn5C)cc3C(F)(F)F)CC2)CC1
26,2.3,CCN1CCC(CCOc2ccc(-c3nc(C#N)nc4c3ccn4CCO)cc2C(F)(F)F)CC1

row,IC50 [nM],Compound
1,2.6,N#Cc1nc(-c2ccc(OCCC3CCNCC3)c(C(F)(F)F)c2)c2ccn(CC3CCCO3)c2n1 (centres undefined)
2,3.2,CCN1CCC(CCOc2ncc(-c3nc(C#N)nc4c3ccn4CC3CCOCC3)cc2C(F)(F)F)CC1
3,2,Cn1ccc2c(-c3ccc(OCCC4CCN(C(C)(C)C)CC4)c(C(F)(F)F)c3)nc(C#N)nc21
4,2.7,Cn1cnc2c(-c3ccc(OCCC4CCN(CC#N)CC4)c(C(F)(F)F)c3)nc(C#N)nc21
5,1.4,Cn1cnc2c(-c3cnc(OCCC4CCNCC4)c(C(F)(F)F)c3)nc(C#N)nc21
6,2.8,N#Cc1nc(-c2ccc(OCCC3CCNCC3)c(C(F)(F)F)c2)c2ccn(C3CCOC3)c2n1 (centres undefined)
7,3.5,N#Cc1nc(-c2cnc(OCCC3CCNCC3)c(C(F)(F)F)c2)c2ccn(CC3CCOCC3)c2n1
8,2.7,Cn1ccc2c(-c3cnc(OCCC4CCCNC4)c(C(F)(F)F)c3)nc(C#N)nc21 (centres undefined)
9,2.5,Cn1ccc2c(-c3cnc(OCCC4CCNCC4)c(C(F)(F)F)c3)nc(C#N)nc21
10,1.7,Cn1cnc2c(-c3ccc(OCCC4CCN(CC(=O)N5CC[C@H](F)C5)CC4)c(C(F)(F)F)c3)nc(C#N)nc21
11,2.2,CN1CCC(N(C)C(=O)Cn2ccc3c(-c4ccc(OCCC5CCOCC5)c(C(F)(F)F)c4)nc(C#N)nc32)C1 (centres undefined)
12,3.7,CCN1CCC(CCOc2ccc(-c3nc(C#N)nc4c3ccn4CC)cc2C(F)(F)F)CC1
13,2,CCN1CCC(CCOc2ncc(-c3nc(C#N)nc4c3ncn4CC3CCOC3)cc2C(F)(F)F)CC1 (centres undefined)
14,2,Cn1cnc2c(-c3cnc(OCCC4CCN(C5CCC5)CC4)c(C(F)(F)F)c3)nc(C#N)nc21
15,2.1,CCN1CCC(CCOc2ccc(-c3nc(C#N)nc4c3ccn4C)cc2C(F)(F)F)C1 (centres undefined)
16,2.1,Cn1cnc2c(-c3ccc(OCCC4CCN(CC(=O)N5CCC(C#N)CC5)CC4)c(C(F)(F)F)c3)nc(C#N)nc21
17,4,CN(C)C(=O)CN1CCCC(COc2ccc(-c3nc(C#N)nc4c3ccn4C)cc2C(F)(F)F)C1 (centres undefined)
18,1.2,CCN1CCC(CCOc2ccc(-c3nc(C#N)nc4c3ncn4C)cc2C(F)(F)F)CC1
19,8.9,Cn1cnc2c(-c3ccc(OCC(=O)N4CCNCC4)c(C(F)(F)F)c3)nc(C#N)nc21
20,2.2,N#Cc1nc(-c2ccc(OCCC3CCNCC3)c(C(F)(F)F)c2)c2cc[nH]c2n1
21,1.9,N#Cc1nc(-c2ccc(OCCC3CCNCC3)c(C(F)(F)F)c2)c2ccn(CC3CCOC3)c2n1 (centres undefined)
22,2.2,CN1CCC[C@H]1C(=O)N1CCC(COc2ccc(-c3nc(C#N)nc4c3ccn4CC3CCOC3)cc2C(F)(F)F)CC1 (some centres undefined)
23,3.2,N#Cc1nc(-c2ccc(OCCC3CCN(CCO)CC3)c(C(F)(F)F)c2)c2ccn(CC3CCCO3)c2n1 (centres undefined)
24,1,CN1CCC[C@@H]1C(=O)N1CCC(CCOc2ncc(-c3nc(C#N)nc4c3ncn4C)cc2C(F)(F)F)CC1

row,Compound,IC50 [nM]
1,Cn1c(C(F)(F)F)nc2c(-c3cnc(OCCC4CCNCC4)c(C(F)(F)F)c3)nc(C#N)nc21,3.3
2,CCN1CCN(C(=O)COc2ccc(-c3nc(C#N)nc4c3ncn4C)cc2C(F)(F)F)CC1,2.6
3,Cn1ccc2c(-c3ccc(SCCC4CCNCC4)c(C(F)(F)F)c3)nc(C#N)nc21,1.7
4,Cn1ccc2c(-c3ccc(OCCC4CC5CCC(C4)N5)c(C(F)(F)F)c3)nc(C#N)nc21 (centres undefined),3.6
5,N#Cc1nc(-c2ccc(OCCC3CCN(C(CF)CF)CC3)c(C#N)c2)c2ccn(CC3CCOC3)c2n1 (centres undefined),8.9
6,N#Cc1nc(-c2ccc(OCCC3CCNCC3)c(C(F)(F)F)c2)c2ccn(C3CCOCC3)c2n1,2.6
7,CCN1CCC(CCOc2ncc(-c3nc(C#N)nc4c3ccn4CC3CCOC3)cc2C(F)(F)F)CC1 (centres undefined),2.6
8,CCn1ccc2c(-c3ccc(OCCC4CCNCC4)c(C(F)(F)F)c3)nc(C#N)nc21,3
